Measurements as given in patent publication US11560391B2, “Sulfonylurea compounds as inhibitors of interleukin-1 activity” (Genentech, Inc., priority 2018, dated 2023).
Like-named read-outs stand apart in the source and are kept apart here.

What was measured:
NLRP3 inflammasome = biological target: T1, NLRP3 inflammasome (Homo sapiens, UniProt Q96P20); assay: NLRP3 inflammasome activation assay in LPS-primed, nigericin-stimulated PBMCs, IL-1β release; format: cell-based; conditions: 10 μM nigericin
T1 construct: freshly isolated from human peripheral blood from healthy donors; StemCells Technologies; host or cells: primary human PBMCs
T1 sequence (Q96P20 whole entry): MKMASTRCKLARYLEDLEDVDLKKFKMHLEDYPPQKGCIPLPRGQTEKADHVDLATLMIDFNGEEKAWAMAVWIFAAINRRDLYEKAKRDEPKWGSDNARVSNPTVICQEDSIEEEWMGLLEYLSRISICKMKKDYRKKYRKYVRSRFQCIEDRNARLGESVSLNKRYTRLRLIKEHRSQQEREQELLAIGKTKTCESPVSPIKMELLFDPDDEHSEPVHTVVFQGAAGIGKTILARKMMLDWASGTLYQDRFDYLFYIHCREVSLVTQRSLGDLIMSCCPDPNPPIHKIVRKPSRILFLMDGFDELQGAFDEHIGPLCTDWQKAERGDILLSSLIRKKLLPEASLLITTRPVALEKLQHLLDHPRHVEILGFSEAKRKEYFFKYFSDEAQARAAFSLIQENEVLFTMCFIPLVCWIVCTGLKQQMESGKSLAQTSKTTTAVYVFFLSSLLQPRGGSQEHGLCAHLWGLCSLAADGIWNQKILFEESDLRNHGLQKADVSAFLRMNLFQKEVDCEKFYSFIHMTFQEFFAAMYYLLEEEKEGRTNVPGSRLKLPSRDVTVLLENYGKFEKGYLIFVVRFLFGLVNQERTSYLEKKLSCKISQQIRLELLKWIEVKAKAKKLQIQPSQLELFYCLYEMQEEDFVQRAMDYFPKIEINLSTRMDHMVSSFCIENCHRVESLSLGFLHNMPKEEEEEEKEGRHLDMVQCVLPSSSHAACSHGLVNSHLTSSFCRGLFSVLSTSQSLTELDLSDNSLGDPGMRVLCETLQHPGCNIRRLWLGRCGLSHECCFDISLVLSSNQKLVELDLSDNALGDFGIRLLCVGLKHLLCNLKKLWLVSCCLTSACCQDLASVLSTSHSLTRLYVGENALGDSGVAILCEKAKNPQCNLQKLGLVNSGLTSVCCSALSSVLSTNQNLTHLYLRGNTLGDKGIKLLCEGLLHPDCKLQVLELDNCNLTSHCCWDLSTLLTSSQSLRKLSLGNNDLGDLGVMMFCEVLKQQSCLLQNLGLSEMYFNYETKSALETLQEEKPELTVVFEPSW
Procedure, shortened: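 Fresh or cryopreserved human PBMCs primed with 100 ng/mL LPS for 3 h, pre-incubated 30 min with compound (0.00017-10 uM, or 2-fold 20-point series from 40 μM), then stimulated with 10 μM nigericin for 1.5 h at 37 °C. Supernatant IL-1β measured by ELISA or by HTRF (665/620 ratio).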

PBMCs = assay: CTG (CellTiter-Glo) viability assay of compound-treated LPS and nigericin stimulated PBMCs; format: cell-based, human; conditions: Homo sapiens, PBMC
Procedure, shortened: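 Human PBMCs primed with 100 ng/mL LPS for 3 h, pre-incubated 30 min with compound (0.00017–10 uM) in FBS-free medium, then stimulated with 10 μM nigericin for 1.5 h. Viability read by CellTiter-Glo ATP luminescence as a cytotoxicity counter-screen.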

TNFα = TNFα levels of LPS and nigericin stimulated PBMCs (counter-screen); format: cell-based; conditions: Homo sapiens, PBMC
Procedure: Human peripheral blood mononuclear cells (PBMCs), consisting of lymphocytes (T, B and NK cells), monocytes and dendritic cells, are freshly isolated from human peripheral blood from healthy donors. Cells are obtained through an IRB approved donor program by iXCells Biotechnologies where all the donors are tested for bacterial and viral infections. Cells are purified from peripheral blood using ficoll gradient centrifugation.
Fresh or cryopreserved PMBCs are seeded in V-bottom 96-well plate at 0.5-1×10^5 cells per well and incubated overnight at 37° C. with 5% CO2 in RPMI 1640 medium with GlutaMAX supplement, 4.5 g/L D-glucose, 10% Fetal Bovine Serum (FBS), […] Sodium Pyruvate, 1% Penicillin/Streptomycin, 10 mM HEPES and 0.05 mM of […]. Freshly isolated or cryopreserved KCs cells are seeded in flat-bottom 96-well plates at 0.6-1.5×10^5 cells/well and incubated overnight at 37° C., 5% CO2 in RPMI 1640 Medium with GlutaMAX supplement, FBS, 1% Penicillin/Streptomycin and 10 mM HEPES. The following day, the cells are primed with 100 ng/mL of lipopolysaccharides (LPS; Sigma Aldrich) in FBS-free RPMI 1640 for 3 h. After the priming step, the media is removed and PBMCs are pre-incubated with serial concentrations of test compounds (0.00017-10 uM) or vehicle (DMSO) for 30 min in FBS-free media prior to addition of the NLRP3 activator. Cells are then stimulated with 10 μM Nigericin (Sigma Aldrich; InvivoGen) for 1.5 h. Plates were centrifuged at 1,500 rpm for 3 minutes to pellet cells and supernatant was transferred into new plates for subsequent experiments.
For ELISA assays cells are seeded into 96-well plates. Post study, supernatants are removed and the levels of mature IL-1β, IL18 and TNFα (Quantikine ELISA, R&D systems) are measured in cell conditioned media by ELISA according to manufacturer's instructions.
TNFα levels of LPS and nigericin stimulated cells are measured by HTRF assay (Cisbio, Bedford, Mass.). […] Measuring TNFalpha production also serves as a technical counter-screen to eliminate compounds that interfere with the HTRF reagents. Thus compounds that inhibit both IL-1β and TNFα levels are triaged for either being non-selective for inflammasome or interfering with the HTRF readout.

THP-1 ASC-GFP cells = assay: THP-1 ASC-GFP speck assay (NLRP3 inflammasome activation, nigericin); format: cell-based; conditions: THP1-ASC-GFP; PMA-differentiated, LPS primed, 10 μM nigericin
Procedure, shortened: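 PMA-differentiated (500 ng/ml, overnight) THP-1 ASC-GFP cells primed with LPS 1 μg/mL for 3 h, pre-treated 30 min with compound (20-point, 2-fold from 40 μM), then nigericin 10 μM for 90 min. After fixation, imaging gives % cells with ASC-GFP specks against Hoechst-counted nuclei.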

[1] = PBMC, LPS priming, read-out: PMBC IL-1β IC50
[2] = LPS 100 ng/mL priming, read-out: IL-1B pIC50 (converted)
[3] = LPS and nigericin stimulated cells, read-out: CTG pIC50 (converted)
[4] = LPS and nigericin stimulated cells, read-out: TNFa pIC50 (converted)

Structure (SMILES) | IC50 (NLRP3 inflammasome; [1]) [nM] | IC50 (PBMCs; read-out: PMBC CTG IC50) [µM] | IC50 (TNFα; read-out: PMBC TNFα IC50) [µM] | IC50 (THP-1 ASC-GFP cells) [nM] | IC50 (PBMCs; read-out: PMBC CTG IC50 (μM)) [µM] | IC50 (TNFα; read-out: PMBC TNFα IC50 (μM)) [µM] | IC50 (NLRP3 inflammasome; [2]) [nM] | IC50 (PBMCs; [3]) [µM] | IC50 (TNFα; [4]) [µM]
COc1cc(C(C)C)c(NC(=O)NS(=O)(=O)c2cnn3c2OCC(C)(C)C3)c(C(C)C)n1 [Example 47, N-((2,4-diisopropyl-6-methoxypyridin-3-yl)carbamoyl)-6,6-dimethyl-6,7-dihydro-5H-pyrazolo[5,1-b][1,3]oxazine-3-sulfonamide] | 2010 | 1.16 | > 10 | 8300 | – | – | – | – | –
CNc1cc(C(C)C)c(NC(=O)NS(=O)(=O)c2cnn3c2OCCC3)c(C(C)C)n1 [Example 53, N-((2,4-diisopropyl-6-(methylamino)pyridin-3-yl)carbamoyl)-6,7-dihydro-5H-pyrazolo[5,1-b][1,3]oxazine-3-sulfonamide] | 3400 | 0.88 | > 10 | 3300 | – | – | – | – | –
Cc1cc(C(C)C)c(NC(=O)NS(=O)(=O)c2cnn3c2OCCC3)c(C(C)C)n1 [Example 48, N-((2,4-diisopropyl-6-methylpyridin-3-yl)carbamoyl)-6,7-dihydro-5H-pyrazolo[5,1-b][1,3]oxazine-3-sulfonamide] | 2470 | 2.43 | > 10 | 2000 | – | – | – | – | –
CC(C)c1ncc2c(c1NC(=O)NS(=O)(=O)c1cnn3c1OCCC3)CCC2 [Example 55, N-((3-isopropyl-6,7-dihydro-5H-cyclopenta[c]pyridin-4-yl)carbamoyl)-6,7-dihydro-5H-pyrazolo[5,1-b][1,3]oxazine-3-sulfonamide] | > 10000 | – | – | – | > 10 | > 10 | – | – | –
COc1cc(C(C)C)c(NC(=O)NS(=O)(=O)c2cnn3c2OC[C@@H](N(C)C)C3)c(C(C)C)n1 [Example 52a, (S)—N-((2,4-diisopropyl-6-methoxypyridin-3-yl)carbamoyl)-6-(dimethylamino)-6,7-dihydro-5H-pyrazolo[5,1-b][1,3]oxazine-3-sulfonamide] | 790 | 0.39 | > 10 | 500 | – | – | – | – | –
CC(C)NC(=O)NS(=O)(=O)c1cnn2c1OCC(CN)C2 (centres unmarked) | – | – | – | – | – | – | > 10000 | > 10 | > 10
CC(C)c1ncc2c(c1NC(=O)NS(=O)(=O)c1cnn3c1OCCC3)CCC2 [drawing 422] | – | – | – | – | – | – | > 10000 | > 10 | > 10
COc1cc(C(C)C)c(NC(=O)NS(=O)(=O)c2cnn3c2OC[C@@H](N(C)C)C3)c(C(C)C)n1 [drawing 419] | – | – | – | – | – | – | 100 to 1000 | 0.1 to 1 | > 10
CC(C)c1cc(C(F)(F)F)nc(C(C)C)c1NC(=O)NS(=O)(=O)c1cnn2c1OCCC2 [Example 54, N-((2,4-diisopropyl-6-(trifluoromethyl)pyridin-3-yl)carbamoyl)-6,7-dihydro-5H-pyrazolo[5,1-b][1,3]oxazine-3-sulfonamide] | 320 | 0.016 | > 10 | 620 | – | – | – | – | –
